Experimental data as given in US10947252B2, “Inhibitors of KEAP1-Nrf2 protein-protein interaction” (Janssen Pharmaceutica NV, priority 2018, dated 2021).

Key:
[1] = tested on: Glo-Response ARE-luc2P HEK293 cell line; assay: ARE luciferase reporter cell-based assay; settings: Homo sapiens, HEK293, 24 h, average of results obtained;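 also: luciferase signal tracks Nrf2 activation of the ARE once compounds disrupt KEAP1-Nrf2 binding, read with One-Glo reagent, DMSO serving as low control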
[2] = molecular target: Kelch domain of human KEAP1 (321-624 aa) (Homo sapiens (Human), UniProt Q14145); assay: KEAP1 KELCH ThermoFluor binding assay; settings: KEAP Kelch […], 1,8-ANS, pH 7.0, average of results obtained, read-out: Tf Kd;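 also: Ligand-induced melting temperature shift of E. coli-expressed KEAP1 Kelch protein, Kd estimated from concentration-response curves of ΔTm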
Kelch domain of human KEAP1 (321-624 aa), sequence (Q14145 321-624): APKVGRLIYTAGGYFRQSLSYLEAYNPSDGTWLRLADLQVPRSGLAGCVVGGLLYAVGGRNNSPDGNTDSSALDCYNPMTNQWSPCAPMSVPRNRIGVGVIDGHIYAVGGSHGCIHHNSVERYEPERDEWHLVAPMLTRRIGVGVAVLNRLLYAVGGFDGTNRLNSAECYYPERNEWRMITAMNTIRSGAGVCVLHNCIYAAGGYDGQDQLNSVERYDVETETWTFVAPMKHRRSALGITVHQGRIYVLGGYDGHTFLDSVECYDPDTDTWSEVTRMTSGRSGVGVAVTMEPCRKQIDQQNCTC

SMILES	EC50 [1] [nM]	Kd [2] [nM]
CC[C@@H]1CN(Cc2cc([C@@H](CC(=O)O)c3cc(OC(F)F)c4c(c3)nnn4C)ccc2C)S(=O)(=O)c2cccnc2O1 (single isomer, unassigned) [Example 251, (*R)-3-(7-(Difluoromethoxy)-1-methyl-1H-benzo[d][1,2,3]triazol-5-yl)-3-(3-(((R)-4-ethyl-1,1-dioxido-3,4-dihydro-2H-pyrido[2,3-b][1,4,5]oxathiazepin-2-yl)methyl)-4-methylphenyl)propanoic Acid]	24.1	< 1
Cc1ccc([C@H](CC(=O)O)c2ccn3c(C(F)(F)F)nnc3c2)cc1CN1C[C@@H]2CCCN2c2ncccc2S1(=O)=O (single isomer, unassigned) [Example 254, (*S)-3-(3-(((S)-5,5-Dioxido-7a,8,9,10-tetrahydropyrido[2,3-f]pyrrolo[2,1-d][1,2,5]thiadiazepin-6(7H)-yl)methyl)-4-methylphenyl)-3-(3-(trifluoromethyl)-[1,2,4]triazolo[4,3-a]pyridin-7-yl)propanoic Acid]	3400	< 1
Cc1ccc([C@@H](CC(=O)O)c2ccn3c(C(F)(F)F)nnc3c2)cc1CN1C[C@@H]2CCCN2c2ncccc2S1(=O)=O (single isomer, unassigned) [Example 255, (*R)-3-(3-(((S)-5,5-Dioxido-7a,8,9,10-tetrahydropyrido[2,3-f]pyrrolo[2,1-d][1,2,5]thiadiazepin-6(7H)-yl)methyl)-4-methylphenyl)-3-(3-(trifluoromethyl)-[1,2,4]triazolo[4,3-a]pyridin-7-yl)propanoic Acid]	922	< 1
CC[C@@H]1CN(Cc2cc([C@H](CC(=O)O)c3ccn4c(C(F)(F)F)nnc4c3)ccc2C)S(=O)(=O)c2cccnc2O1 (single isomer, unassigned) [Example 257, (*S)-3-(3-(((R)-4-Ethyl-1,1-dioxido-3,4-dihydro-2H-pyrido[2,3-b][1,4,5]oxathiazepin-2-yl)methyl)-4-methylphenyl)-3-(3-(trifluoromethyl)-[1,2,4]triazolo[4,3-a]pyridin-7-yl)propanoic Acid]	574	< 1
CC[C@@H]1CN(Cc2cc(C(CC(=O)O)c3ccn4c(C(F)(F)F)nnc4c3)ccc2C)S(=O)(=O)c2cccnc2O1 (single isomer, unassigned) [Example 258, (*R)-3-(3-(((R)-4-Ethyl-1,1-dioxido-3,4-dihydro-2H-pyrido[2,3-b][1,4,5]oxathiazepin-2-yl)methyl)-4-methylphenyl)-3-(3-(trifluoromethyl)-[1,2,4]triazolo[4,3-a]pyridin-7-yl)propanoic Acid]	428	< 1
Cc1ccc([C@H](CC(=O)O)c2ccn3c(C(F)(F)F)nnc3c2C)cc1CN1CC2(COC2)Oc2ncccc2S1(=O)=O (single isomer, unassigned) [Example 260, (*S)-3-(3-((1′,1′-Dioxidospiro[oxetane-3,4′-pyrido[2,3-b][1,4,5]oxathiazepin]-2′(3′H)-yl)methyl)-4-methylphenyl)-3-(8-methyl-3-(trifluoromethyl)-[1,2,4]triazolo[4,3-a]pyridin-7-yl)propanoic Acid]	101	< 1
Cc1ccc([C@@H](CC(=O)O)c2ccn3c(C(F)(F)F)nnc3c2C)cc1CN1CC2(COC2)Oc2ncccc2S1(=O)=O (single isomer, unassigned) [Example 261, (*R)-3-(3-((1′,1′-Dioxidospiro[oxetane-3,4′-pyrido[2,3-b][1,4,5]oxathiazepin]-2′(3′H)-yl)methyl)-4-methylphenyl)-3-(8-methyl-3-(trifluoromethyl)-[1,2,4]triazolo[4,3-a]pyridin-7-yl)propanoic Acid]	1390	< 1
Cc1ccc([C@H](CC(=O)O)c2ccn3c(C(F)(F)F)nnc3c2C)cc1CN1C[C@H]2CCCN2c2ccccc2S1(=O)=O (single isomer, unassigned) [Example 266, (*S)-3-(3-(((R)-5,5-Dioxido-7a,8,9,10-tetrahydrobenzo[f]pyrrolo[2,1-d][1,2,5]thiadiazepin-6(7H)-yl)methyl)-4-methylphenyl)-3-(8-methyl-3-(trifluoromethyl)-[1,2,4]triazolo[4,3-a]pyridin-7-yl)propanoic Acid]	14.6	< 1
Cc1ccc([C@@H](CC(=O)O)c2ccn3c(C(F)(F)F)nnc3c2C)cc1CN1C[C@H]2CCCN2c2ccccc2S1(=O)=O (single isomer, unassigned) [Example 267, (*R)-3-(3-(((R)-5,5-Dioxido-7a,8,9,10-tetrahydrobenzo[f]pyrrolo[2,1-d][1,2,5]thiadiazepin-6(7H)-yl)methyl)-4-methylphenyl)-3-(8-methyl-3-(trifluoromethyl)-[1,2,4]triazolo[4,3-a]pyridin-7-yl)propanoic Acid]	90.4	< 1
Cc1ccc([C@H](CC(=O)O)c2ccn3c(C(F)(F)F)nnc3c2C)cc1CN1CC(C)(C)Oc2ncccc2S1(=O)=O (single isomer, unassigned) [Example 269, (*S)-3-(3-((4,4-Dimethyl-1,1-dioxido-3,4-dihydro-2H-pyrido[2,3-b][1,4,5]oxathiazepin-2-yl)methyl)-4-methylphenyl)-3-(8-methyl-3-(trifluoromethyl)-[1,2,4]triazolo[4,3-a]pyridin-7-yl)propanoic Acid]	365	< 1
Cc1ccc([C@@H](CC(=O)O)c2ccn3c(C(F)(F)F)nnc3c2C)cc1CN1CC(C)(C)Oc2ncccc2S1(=O)=O (single isomer, unassigned) [Example 270, (*R)-3-(3-((4,4-Dimethyl-1,1-dioxido-3,4-dihydro-2H-pyrido[2,3-b][1,4,5]oxathiazepin-2-yl)methyl)-4-methylphenyl)-3-(8-methyl-3-(trifluoromethyl)-[1,2,4]triazolo[4,3-a]pyridin-7-yl)propanoic Acid]	2420	1.28
Cc1ccc([C@H](CC(=O)O)c2ccn3c(C(F)(F)F)nnc3c2C)cc1CN1C[C@H]2CCCCN2c2ncccc2S1(=O)=O (single isomer, unassigned) [Example 272, (*S)-3-(3-(((*R)-5,5-Dioxido-7,7a,8,9,10,11-hexahydro-6H-dipyrido[2,1-d:2′,3′-f][1,2,5]thiadiazepin-6-yl)methyl)-4-methylphenyl)-3-(8-methyl-3-(trifluoromethyl)-[1,2,4]triazolo[4,3-a]pyridin-7-yl)propanoic Acid]	10.9	< 1
Cc1ccc([C@@H](CC(=O)O)c2ccn3c(C(F)(F)F)nnc3c2C)cc1CN1C[C@H]2CCCCN2c2ncccc2S1(=O)=O (single isomer, unassigned) [Example 273, (*R)-3-(3-(((*R)-5,5-Dioxido-7,7a,8,9,10,11-hexahydro-6H-dipyrido[2,1-d:2′,3′-f][1,2,5]thiadiazepin-6-yl)methyl)-4-methylphenyl)-3-(8-methyl-3-(trifluoromethyl)-[1,2,4]triazolo[4,3-a]pyridin-7-yl)propanoic Acid]	25.8	< 1
Cc1ccc([C@H](CC(=O)O)c2ccn3c(C(F)(F)F)nnc3c2C)cc1CN1C[C@@H]2CCCN2c2ccccc2S1(=O)=O (single isomer, unassigned) [Example 274, (*S)-3-(3-(((S)-5,5-Dioxido-7a,8,9,10-tetrahydrobenzo[f]pyrrolo[2,1-d][1,2,5]thiadiazepin-6(7H)-yl)methyl)-4-methylphenyl)-3-(8-methyl-3-(trifluoromethyl)-[1,2,4]triazolo[4,3-a]pyridin-7-yl)propanoic Acid]	51.2	1.19
Cc1ccc([C@@H](CC(=O)O)c2ccn3c(C(F)(F)F)nnc3c2C)cc1CN1C[C@@H]2CCCN2c2ccccc2S1(=O)=O (single isomer, unassigned) [Example 275, (*R)-3-(3-(((S)-5,5-Dioxido-7a,8,9,10-tetrahydrobenzo[f]pyrrolo[2,1-d][1,2,5]thiadiazepin-6(7H)-yl)methyl)-4-methylphenyl)-3-(8-methyl-3-(trifluoromethyl)-[1,2,4]triazolo[4,3-a]pyridin-7-yl)propanoic Acid]	399	8.69
CCc1nnc2c(C)c([C@@H](CC(=O)O)c3ccc(C)c(CN4C[C@H]5CCCN5c5ccccc5S4(=O)=O)c3)ccn12 (single isomer, unassigned) [Example 279, (*S)-3-(3-(((R)-5,5-Dioxido-7a,8,9,10-tetrahydrobenzo[f]pyrrolo[2,1-d][1,2,5]thiadiazepin-6(7H)-yl)methyl)-4-methylphenyl)-3-(3-ethyl-8-methyl-[1,2,4]triazolo[4,3-a]pyridin-7-yl)propanoic Acid]	235	< 1
CCc1nnc2c(C)c([C@H](CC(=O)O)c3ccc(C)c(CN4C[C@H]5CCCN5c5ccccc5S4(=O)=O)c3)ccn12 (single isomer, unassigned) [Example 280, (*R)-3-(3-(((R)-5,5-Dioxido-7a,8,9,10-tetrahydrobenzo[f]pyrrolo[2,1-d][1,2,5]thiadiazepin-6(7H)-yl)methyl)-4-methylphenyl)-3-(3-ethyl-8-methyl-[1,2,4]triazolo[4,3-a]pyridin-7-yl)propanoic Acid]	4010	< 1
CCc1nnc2c(C)c([C@@H](CC(=O)O)c3ccc(C)c(CN4C[C@H]5CCCN5c5ncccc5S4(=O)=O)c3)ccn12 (single isomer, unassigned) [Example 282, (*S)-3-(3-(((R)-5,5-dioxido-7a,8,9,10-tetrahydropyrido[2,3-f]pyrrolo[2,1-d][1,2,5]thiadiazepin-6(7H)-yl)methyl)-4-methylphenyl)-3-(3-ethyl-8-methyl-[1,2,4]triazolo[4,3-a]pyridin-7-yl)propanoic Acid]	293	< 1
